Experiments:
[1] = biological target: T1, Serine/threonine-protein kinase B-raf (Homo sapiens, UniProt P15056, V600E); experiment: Inhibition of B-Raf V600E mutant in human Malme-3M cells assessed as basal ERK phosphorylation; assay type: cell-based
[2] = biological target: T1, Serine/threonine-protein kinase B-raf; experiment: Inhibition of full length B-Raf V600E mutant (unknown origin)
[3] = test system: Serine/threonine-protein kinase B-raf (Homo sapiens), P15056 [V600E]; experiment: Ratio of IC50 for B-Raf V600E mutant in human Malme-3M cells to IC50 for full length B-Raf V600E mutant (unknown origin); assay type: cell-based
[4] = Permeability from apical to basolateral side in human Caco2 cells; assay type: ADME, cell-based; conditions: Caco-2, read-out: permeability
[5] = Inhibition of cytochrome P450 (unknown origin); assay type: ADME; conditions: human

T1 sequence (P15056 2-766 V600E limits assumed): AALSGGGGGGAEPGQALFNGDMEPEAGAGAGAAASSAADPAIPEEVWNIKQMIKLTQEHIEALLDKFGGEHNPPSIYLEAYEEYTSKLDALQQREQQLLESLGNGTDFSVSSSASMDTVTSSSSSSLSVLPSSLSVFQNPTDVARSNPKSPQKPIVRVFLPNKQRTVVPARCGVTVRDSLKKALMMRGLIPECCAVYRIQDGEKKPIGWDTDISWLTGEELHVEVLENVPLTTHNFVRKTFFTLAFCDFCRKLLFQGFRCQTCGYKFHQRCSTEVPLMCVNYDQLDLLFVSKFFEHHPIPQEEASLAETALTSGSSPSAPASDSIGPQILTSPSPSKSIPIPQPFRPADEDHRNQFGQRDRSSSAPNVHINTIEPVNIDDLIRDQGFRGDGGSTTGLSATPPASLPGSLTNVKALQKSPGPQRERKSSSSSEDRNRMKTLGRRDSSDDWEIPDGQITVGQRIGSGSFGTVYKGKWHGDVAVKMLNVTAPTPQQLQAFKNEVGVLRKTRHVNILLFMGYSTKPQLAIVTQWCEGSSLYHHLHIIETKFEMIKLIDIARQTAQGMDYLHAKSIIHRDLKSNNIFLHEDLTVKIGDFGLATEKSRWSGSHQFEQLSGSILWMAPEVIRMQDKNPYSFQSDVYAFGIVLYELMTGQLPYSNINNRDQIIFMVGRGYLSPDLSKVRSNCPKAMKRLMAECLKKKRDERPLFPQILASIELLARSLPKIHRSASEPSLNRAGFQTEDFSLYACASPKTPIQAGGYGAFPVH
Serine/threonine-protein kinase B-raf (Homo sapiens), P15056 [V600E], sequence (P15056 whole entry V600E): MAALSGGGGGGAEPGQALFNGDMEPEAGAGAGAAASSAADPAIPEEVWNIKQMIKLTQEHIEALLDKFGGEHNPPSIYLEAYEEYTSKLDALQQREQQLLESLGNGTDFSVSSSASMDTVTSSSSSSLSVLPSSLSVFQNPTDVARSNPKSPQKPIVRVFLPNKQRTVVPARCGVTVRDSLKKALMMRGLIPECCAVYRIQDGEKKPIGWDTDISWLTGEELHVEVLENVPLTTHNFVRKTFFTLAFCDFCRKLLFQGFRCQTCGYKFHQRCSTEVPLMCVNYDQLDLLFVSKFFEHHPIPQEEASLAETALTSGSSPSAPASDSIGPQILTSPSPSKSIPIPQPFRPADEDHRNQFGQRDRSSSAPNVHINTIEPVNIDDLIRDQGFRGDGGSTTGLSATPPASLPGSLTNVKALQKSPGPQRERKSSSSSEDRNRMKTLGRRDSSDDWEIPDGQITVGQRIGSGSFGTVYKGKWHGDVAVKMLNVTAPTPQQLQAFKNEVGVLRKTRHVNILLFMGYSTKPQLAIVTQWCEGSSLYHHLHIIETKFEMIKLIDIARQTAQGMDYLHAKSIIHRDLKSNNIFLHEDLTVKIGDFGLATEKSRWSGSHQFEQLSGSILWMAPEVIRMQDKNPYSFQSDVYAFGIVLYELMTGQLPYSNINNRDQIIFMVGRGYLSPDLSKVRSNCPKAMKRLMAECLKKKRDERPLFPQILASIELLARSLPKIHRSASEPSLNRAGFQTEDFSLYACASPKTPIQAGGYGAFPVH

Structure (SMILES)	IC50 [1] [nM]	IC50 [2] [nM]	Ratio IC50 [3]	Papp A→B [4] [×10⁻⁶ cm/s]	inhibition (INH) [5]
CCCS(=O)(=O)Nc1ccc(F)c(C(=O)Nc2cnc3[nH]c(-c4ccncc4)nc3c2)c1F	1910	3.2	596		
CCCS(=O)(=O)Nc1ccc(F)c(C(=O)Nc2cnc3[nH]c(C)nc3c2)c1F	1710	40	43		
CCCS(=O)(=O)Nc1ccc(F)c(C(=O)Nc2cnc3[nH]c(C4CCC4)nc3c2)c1F	3330	31	107		
CCCS(=O)(=O)Nc1ccc(F)c(C(=O)Nc2cnc3[nH]c(C(C)C)nc3c2)c1F	1730	60	29		
CCCS(=O)(=O)Nc1ccc(F)c(C(=O)Nc2cnc3[nH]c(CC)nc3c2)c1F	1770	59	30		
CCCS(=O)(=O)Nc1ccc(F)c(C(=O)Nc2cnc3[nH]c(-c4ccccc4F)nc3c2)c1F	167	8	21		
CCCS(=O)(=O)Nc1ccc(F)c(C(=O)Nc2cnc3[nH]c(-c4ccc(F)c(F)c4)nc3c2)c1F	194	3.4	57		
CCCS(=O)(=O)Nc1ccc(F)c(C(=O)Nc2cnc3[nH]c(-c4cccc(F)c4)nc3c2)c1F	298	3.1	97		
CCCS(=O)(=O)Nc1ccc(F)c(C(=O)Nc2cnc3[nH]c(-c4ccccc4Br)nc3c2)c1F	948	27	35		
CCCS(=O)(=O)Nc1ccc(F)c(C(=O)Nc2cnc3ccnn3c2)c1F				11.4	
CCCS(=O)(=O)Nc1ccc(F)c(C(=O)Nc2cnc3[nH]ncc3c2)c1F		18		1.3	
CCCS(=O)(=O)Nc1ccc(F)c(C(=O)Nc2cnc3[nH]cnc3c2)c1F			39	0.6	
CCCS(=O)(=O)Nc1ccc(F)c(C(=O)Nc2cnc3[nH]c(-c4cccnc4)nc3c2)c1F	1130	3	375		
CCCS(=O)(=O)Nc1ccc(F)c(C(=O)Nc2cnc3cc(-c4ccc(F)cc4)nn3c2)c1F			4.9		
CCCS(=O)(=O)Nc1ccc(F)c(C(=O)Nc2cnc3[nH]c(-c4ccccc4Cl)nc3c2)c1F	557	27	21		
CCCS(=O)(=O)Nc1ccc(F)c(C(=O)Nc2cnc3[nH]c(-c4ccc(C#N)cc4)nc3c2)c1F	239	2.7	88		
CCCS(=O)(=O)Nc1ccc(F)c(C(=O)Nc2cnc3[nH]c(-c4cccc(Br)c4)nc3c2)c1F	172	0.76	226		
CCCS(=O)(=O)Nc1ccc(F)c(C(=O)Nc2cnc3[nH]c(-c4cccc(OC)c4)nc3c2)c1F	271	1.2	219		
CCCS(=O)(=O)Nc1ccc(F)c(C(=O)Nc2cnc3[nH]c(-c4ccc(S(C)(=O)=O)cc4)nc3c2)c1F	728	1.4	527		
CCCS(=O)(=O)Nc1ccc(F)c(C(=O)Nc2cnc3[nH]c(C(C)(C)C)nc3c2)c1F	1560	69	23		
CCCS(=O)(=O)Nc1ccc(F)c(C(=O)Nc2cnc3cc(-c4ccccc4)nn3c2)c1F				15.6	
CCCS(=O)(=O)Nc1ccc(F)c(C(=O)Nc2cnc3[nH]ccc3c2)c1F		42		7.3	
CCCS(=O)(=O)Nc1ccc(F)c(C(=O)Nc2cnc3[nH]c(-c4ccc(F)cc4)nc3c2)c1F	1050	4.4	240		
CCCS(=O)(=O)Nc1ccc(F)c(C(=O)Nc2cnc3[nH]c(C4CCNCC4)nc3c2)c1F	> 10000	107	> 93		
CCCS(=O)(=O)Nc1ccc(F)c(C(=O)Nc2cnc3[nH]c(C4CCCNC4)nc3c2)c1F (stereo not drawn)	> 10000	167	> 60		

Now from value to compound:

IC50 [1] [nM]	IC50 [2] [nM]	Ratio IC50 [3]	Papp A→B [4] [×10⁻⁶ cm/s]	inhibition (INH) [5]	Structure (SMILES)
49	1.3	38	2.6		CCCS(=O)(=O)Nc1ccc(F)c(C(=O)Nc2cnc3[nH]c(-c4ccc(C)cc4)nc3c2)c1F
137	1.1	125			CCCS(=O)(=O)Nc1ccc(F)c(C(=O)Nc2cnc3[nH]c(-c4ccc(OC)cc4)nc3c2)c1F
20	1.1	18			CCCS(=O)(=O)Nc1ccc(F)c(C(=O)Nc2cnc3[nH]c(-c4ccc(F)cc4)cc3c2)c1F
20	2.4	8.4			CCCS(=O)(=O)Nc1ccc(F)c(C(=O)Nc2cnc3[nH]c(-c4ccc(Cl)cc4)cc3c2)c1F
90	8.2	11			CCCS(=O)(=O)Nc1ccc(F)c(C(=O)Nc2cnc3cc(-c4ccc(Cl)cc4)nn3c2)c1F
32	1	32	5.6		CCCS(=O)(=O)Nc1ccc(F)c(C(=O)Nc2cnc3[nH]c(-c4ccccc4)cc3c2)c1F
68	1.1	62			CCCS(=O)(=O)Nc1ccc(F)c(C(=O)Nc2cnc3[nH]c(-c4cccc(Cl)c4)nc3c2)c1F
113	1	112			CCCS(=O)(=O)Nc1ccc(F)c(C(=O)Nc2cnc3[nH]c(-c4cccc(C(F)(F)F)c4)nc3c2)c1F
86	2.5	34			CCCS(=O)(=O)Nc1ccc(F)c(C(=O)Nc2cnc3[nH]c(-c4ccc(OC(F)(F)F)cc4)nc3c2)c1F
61	2.2	28	1.3		CCCS(=O)(=O)Nc1ccc(F)c(C(=O)Nc2cnc3[nH]c(-c4ccc(Br)cc4)nc3c2)c1F
157	2.2	71			CCCS(=O)(=O)Nc1ccc(F)c(C(=O)Nc2cnc3[nH]c(-c4ccc(Cl)cc4)nc3c2)c1F
81	1.5	54	2	Not Active	CCCS(=O)(=O)Nc1ccc(F)c(C(=O)Nc2cnc3[nH]c(-c4ccc(Cl)c(Cl)c4)nc3c2)c1F
132	1.6				CCCS(=O)(=O)Nc1ccc(F)c(C(=O)Nc2cnc3[nH]c(-c4ccccc4)nc3c2)c1F
89	1.4	62	1		CCCS(=O)(=O)Nc1ccc(F)c(C(=O)Nc2cnc3[nH]c(-c4ccc(C(F)(F)F)cc4)nc3c2)c1F

— ChEMBL document CHEMBL2434831, “Imidazo[4,5-b]pyridine inhibitors of B-Raf kinase” (Bioorg Med Chem Lett, 2013)
